Inhibition data for 70 compounds are collected here from patent US20110105457A1, “HETEROCYCLIC COMPOUND HAVING INHIBITORY ACTIVITY ON PI3K” (SHIONOGI & CO., LTD., priority 2008, published 2011).

Molecules are shown by their SMILES.

Chain of PI-3 kinase γ (P48736 whole entry): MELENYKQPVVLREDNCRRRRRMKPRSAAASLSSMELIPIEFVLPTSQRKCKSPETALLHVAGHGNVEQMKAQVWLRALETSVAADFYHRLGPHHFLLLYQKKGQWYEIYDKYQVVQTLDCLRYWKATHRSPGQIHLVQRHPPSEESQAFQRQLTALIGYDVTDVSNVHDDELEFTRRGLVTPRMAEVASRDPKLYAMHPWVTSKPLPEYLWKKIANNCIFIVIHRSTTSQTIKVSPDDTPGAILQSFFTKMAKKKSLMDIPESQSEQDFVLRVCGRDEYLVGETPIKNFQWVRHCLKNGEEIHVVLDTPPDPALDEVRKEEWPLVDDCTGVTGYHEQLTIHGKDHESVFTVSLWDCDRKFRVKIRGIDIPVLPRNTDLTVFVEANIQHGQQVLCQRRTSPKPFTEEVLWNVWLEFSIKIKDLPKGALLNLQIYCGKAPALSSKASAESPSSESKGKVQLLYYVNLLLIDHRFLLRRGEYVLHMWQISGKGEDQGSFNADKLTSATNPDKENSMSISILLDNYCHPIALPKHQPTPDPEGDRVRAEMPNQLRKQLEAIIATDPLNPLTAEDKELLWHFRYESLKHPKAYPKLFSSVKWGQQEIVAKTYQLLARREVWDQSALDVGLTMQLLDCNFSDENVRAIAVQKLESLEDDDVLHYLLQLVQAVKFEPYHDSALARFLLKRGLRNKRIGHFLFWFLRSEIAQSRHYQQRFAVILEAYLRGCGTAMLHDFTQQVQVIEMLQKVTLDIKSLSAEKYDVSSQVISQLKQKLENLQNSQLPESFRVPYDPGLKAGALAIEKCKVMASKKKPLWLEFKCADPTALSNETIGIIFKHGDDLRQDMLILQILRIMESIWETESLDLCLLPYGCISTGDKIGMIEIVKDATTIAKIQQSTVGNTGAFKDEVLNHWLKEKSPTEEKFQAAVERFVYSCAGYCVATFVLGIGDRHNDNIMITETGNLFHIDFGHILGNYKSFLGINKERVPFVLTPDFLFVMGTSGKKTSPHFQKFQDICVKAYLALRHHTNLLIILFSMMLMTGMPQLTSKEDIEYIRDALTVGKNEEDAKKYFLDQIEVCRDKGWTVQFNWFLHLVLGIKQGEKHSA

The target in the experiment is PI-3 kinase γ (Homo sapiens, UniProt P48736). As to the kind of experiment: PI3Kγ inhibitory activity, PI3-kinase HTRF assay (Millipore). It is filed as biochemical. As to conditions: 0.5 h; compound 50 μM; read-out: Inhibition ratio % (50 μM). On the procedure:
(Method) The PI3Kγ inhibitory activity of a compound was evaluated using PI3-kinase HTRF™ assay (Millipore) according to the following procedure.
To each well of a testing plate was added 5 μL of a compound solution comprising 10% DMSO (200 μM as the concentration of the compound), 5 μL of 40 μM phosphatidylinositol (4,5)-bisphosphate/20 mM MgCl2/10 mM DTT, and 5 μL of 80 μg/mL PI-3 kinase γ/10 mM MgCl2/5 mM DTT, and then stood for 10 minutes.
Then, 5 μL of 40 μM ATP/10 mM MgCl2/5 mM DTT was added thereto. After reacting for 30 minutes at room temperature, 5 μL of a solution comprising EDTA and biotinylated phosphatidylinositol (3,4,5)-triphosphate was added to quench the reaction.
5 μL of a detection reagent comprising a europium-labeled anti-GST antibody, the GST-tagged PH domain, and allophycocyanin-labeled streptavidin was added thereto. After 18 hours, HTRF (excitation wavelength: 330 nm, measuring wavelengths: 620 nm and 665 nm) was measured.
A value of dividing an amount of fluorescence obtained at the measuring wavelength 665 nm by an amount of fluorescence obtained at 620 nm was defined as an HTRF ratio. The HTRF ratio in the absence of a compound was defined as 100% activity, and the HTRF ratio in the absence of PI-3 kinase γ was defined as 0% activity to calculate an inhibition ratio.
For `CNC(=O)Nc1cn2nc(-c3ccncc3)ccc2n1` [Compound I-147], the inhibition at 50 µM stood at 77%.
For `COc1ccc(Nc2cn3nc(-c4cccc(OC)c4)ccc3n2)cc1` [Compound I-287] the value was 101%.
The same measure for `COc1cccc(-c2ccc3nc(NC(=O)CC(C)(C)C)cn3n2)c1` [Compound I-186]: 78%.
Turning to `CNC(=O)Nc1cn2nc(-c3ccc(OC)cc3)ccc2n1` [Compound I-63], the inhibition at 50 µM turned out to be 91%.
For `COc1cccc(-c2ccc3nc(NC(=O)CN(C)C(=O)OC(C)(C)C)cn3n2)c1` [Compound I-212] the value was 60%; for `CCOC(=O)CNC(=O)Nc1cn2nc(-c3cccc(OC)c3)ccc2n1` [Compound I-112], 84%.
For `COc1cccc(-c2ccc3nc(Nc4cccc(CO)c4)cn3n2)c1` [Compound I-284] the value was 111%.
On to `CNC(=O)Nc1cn2nc(Nc3cccc(C(=O)O)c3)ccc2n1` [Compound I-162], for which the inhibition at 50 µM was determined as 89%.
On to `CNC(=O)Nc1cn2nc(C(=O)N3CCC(C(=O)O)CC3)ccc2n1` [Compound I-32], for which the inhibition at 50 µM was 70%.
Turning to `CCCNC(=O)Nc1cn2nc(-c3cccc(OC)c3)ccc2n1` [Compound I-110], the inhibition at 50 µM was found to be 81%.
For `COc1cccc(-c2ccc3nc(NC(=O)NCc4ccccn4)cn3n2)c1` [Compound I-236] the value was 67%; for `CNC(=O)Nc1cn2nc(NC(=O)c3ccc(C(=O)O)cc3)ccc2n1` [Compound I-160], 77%; for `CNC(=O)Nc1cn2nc(NC(=O)C3CCCC3)ccc2n1` [Compound I-4], 57%.
For `CNC(=O)Nc1cn2nc(C(=O)Nc3ccc(C(=O)O)cc3)ccc2n1` [Compound I-52] the value was 80%.
As to `CNC(=O)Nc1cn2nc(Nc3ccc(OC)cc3)ccc2n1` [Compound I-54], the inhibition at 50 µM was 85%.
For `CNC(=O)Nc1cn2nc(-c3cccc(-c4ccccc4)c3)ccc2n1` [Compound I-155] the value was 57%.
For `CNC(=O)Nc1cn2nc(-c3ccc(-c4ccccc4)s3)ccc2n1` [Compound I-133] the value was 65%; for `COc1cccc(-c2ccc3nc(NC(=O)CNC(C)=O)cn3n2)c1` [Compound I-175], 66%.
Take `CNC(=O)Nc1cn2nc(-c3ccc(-c4ccccc4)cc3)ccc2n1` [Compound I-68]: the inhibition at 50 µM is 90%.
For `CNC(=O)Nc1cn2nc(-c3cccc(C(C)C)c3)ccc2n1` [Compound I-127] the value was 79%.
For `COc1cccc(-c2ccc3nc(NC(=O)NCCNC(=O)OC(C)(C)C)cn3n2)c1` [Compound I-263] the value was 71%; for `COc1cccc(-c2ccc3nc(NC(=O)NCCNC(C)=O)cn3n2)c1` [Compound I-237], 74%.
For `CNC(=O)Nc1cn2nc(Sc3ccccc3)ccc2n1` [Compound I-18] the value was 81%; for `CNC(=O)Nc1cn2nc(NC(=O)c3cccc(Cl)c3)ccc2n1` [Compound I-103], 60%; for `CNC(=O)Nc1cn2nc(-c3ccc(Cl)c(Cl)c3)ccc2n1` [Compound I-67], 72%.
Turning to `CNC(=O)Nc1cn2nc(-c3ccc(C#N)cc3)ccc2n1` [Compound I-71], the inhibition at 50 µM was 69%.
The same measure for `COc1cccc(-c2ccc3nc(NC(=O)NCCCl)cn3n2)c1` [Compound I-116]: 76%.
The same measure for `CNC(=O)Nc1cn2nc(-c3ccccc3)ccc2n1` [Compound I-9]: 82%; for `CNC(=O)Nc1cn2nc(-c3cccc(C(C)=O)c3)ccc2n1` [Compound I-55]: 85%.
Consider `COc1cccc(-c2ccc3nc(NC(=O)c4cccc(N5CCOCC5)c4)cn3n2)c1` [Compound I-202], for which the inhibition at 50 µM worked out at 83%.
`CNC(=O)Nc1cn2nc(-c3ccc(C(C)=O)cc3)ccc2n1` [Compound I-56]: the inhibition at 50 µM was 77%.
Take `COC[C@H]1CCCN1C(=O)Nc1cn2nc(-c3cccc(OC)c3)ccc2n1` [Compound I-261]: the inhibition at 50 µM was 59%.
The same measure for `CNC(=O)Nc1cn2nc(-c3cccc(NS(C)(=O)=O)c3)ccc2n1` [Compound I-74]: 89%; for `COc1cccc(-c2ccc3nc(NC(=O)Nc4ccsc4)cn3n2)c1` [Compound I-111]: 55%; for `COc1cccc(-c2ccc3nc(NC(=O)NCC4COCCO4)cn3n2)c1` (stereo not shown) [Compound I-258]: 76%.
For `COc1cccc(-c2ccc3nc(Nc4cccc([N+](=O)[O-])c4)cn3n2)c1` [Compound I-286] the value was 87%; for `COc1cccc(-c2ccc3nc(NC(=O)NN(C)C)cn3n2)c1` [Compound I-276], 87%; for `COC(=O)C[C@H](C)CC(=O)Nc1cn2nc(-c3cccc(OC)c3)ccc2n1` [Compound I-171], 71%.
The same measure for `COc1cccc(-c2ccc3nc(NC(=O)c4ccc(OC)c(OC)c4)cn3n2)c1` [Compound I-198]: 57%; for `CNC(=O)Nc1cn2nc(/C=C/c3ccc(OC)cc3)ccc2n1` [Compound I-149]: 53%; for `COc1cccc(-c2ccc3nc(NC(=O)C4CCOCC4)cn3n2)c1` [Compound I-194]: 84%.
Regarding `CNC(=O)Nc1cn2nc(-c3cccc(COC(C)(C)C)c3)ccc2n1` [Compound I-131], the inhibition at 50 µM is 70%.
With `COc1cccc(-c2ccc3nc(NC(=O)NN4CCc5ccccc54)cn3n2)c1` [Compound I-269], the inhibition at 50 µM is 64%.
The same measure for `COc1cccc(-c2ccc3nc(NC(=O)c4ccncc4)cn3n2)c1` [Compound I-170]: 60%.
The same measure for `CNC(=O)Nc1cn2nc(C(=O)Nc3ccccc3OCCN)ccc2n1` [Compound I-98]: 72%; for `CNC(=O)Nc1cn2nc(-c3cccc(C(F)(F)F)c3)ccc2n1` [Compound I-154]: 54%.
For `COc1cccc(-c2ccc3nc(NC(=O)N4CCC[C@H]4C(=O)OC(C)(C)C)cn3n2)c1` [Compound I-249] the value was 59%; for `COCCNC(=O)Nc1cn2nc(-c3cccc(OC)c3)ccc2n1` [Compound I-245], 76%.
Turning to `CNC(=O)Nc1cn2nc(-c3cccc(C(=O)N(C)C)c3)ccc2n1` [Compound I-82], the inhibition at 50 µM was 79%.
For `CNC(=O)Nc1cn2nc(-c3ccc(NC(=O)OC)cc3)ccc2n1` [Compound I-80] the value was 57%; for `CNC(=O)Nc1cn2nc(NC(=O)Nc3ccccc3)ccc2n1` [Compound I-5], 60%; for `CNC(=O)Nc1cn2nc(Nc3cccc(OC)c3)ccc2n1` [Compound I-39], 69%.
Turning to `CNC(=O)Nc1cn2nc(-c3ccc(C)cc3)ccc2n1` [Compound I-66], the inhibition at 50 µM turned out to be 77%.
The same measure for `CNC(=O)Nc1cn2nc(-c3cc4ccccc4s3)ccc2n1` [Compound I-58]: 70%; for `CCOC(=O)CCNC(=O)Nc1cn2nc(-c3cccc(OC)c3)ccc2n1` [Compound I-259]: 68%.
With `COC(=O)c1cccc(C(=O)Nc2cn3nc(-c4cccc(OC)c4)ccc3n2)c1` [Compound I-192], the inhibition at 50 µM was 52%.
For `CNC(=O)Nc1cn2nc(-c3ccc(Cl)cc3)ccc2n1` [Compound I-60] the value was 64%; for `COC(=O)c1cccc(Nc2cn3nc(-c4cccc(OC)c4)ccc3n2)c1` [Compound I-285], 96%; for `COc1cccc(-c2ccc3nc(NC(=O)NCCC(=O)NC(C)(C)C)cn3n2)c1` [Compound I-272], 61%.
Regarding `CNC(=O)Nc1cn2nc(Nc3ccccc3)ccc2n1` [Compound I-7], the inhibition at 50 µM amounted to 77%.
For `CNC(=O)Nc1cn2nc(C(=O)N[C@@H](C)C(N)=O)ccc2n1` [Compound I-121] the value was 71%; for `COc1cccc(-c2ccc3nc(NC(=O)NC4CCN(S(=O)(=O)C(C)C)CC4)cn3n2)c1` [Compound I-271], 53%; for `COCCCNC(=O)Nc1cn2nc(-c3cccc(OC)c3)ccc2n1` [Compound I-244], 87%.
Regarding `CNC(=O)Nc1cn2nc(Cc3ccccc3)ccc2n1` [Compound I-20], the inhibition at 50 µM amounted to 62%.
For `CNC(=O)Nc1cn2nc(C(=O)NCc3ccccc3)ccc2n1` [Compound I-15], the inhibition at 50 µM worked out at 74%.
The same measure for `CNC(=O)Nc1cn2nc(-c3cccc(OCc4ccccc4)c3)ccc2n1` [Compound I-150]: 71%; for `COc1cccc(-c2ccc3nc(NC(=O)NC4CCCCNC4=O)cn3n2)c1` (stereo not shown) [Compound I-233]: 79%.
The same measure for `CCCNC(=O)c1ccc2nc(NC(=O)NC)cn2n1` [Compound I-48]: 83%; for `COc1cccc(-c2ccc3nc(NC(=O)C4CCN4C(C)(C)C)cn3n2)c1` (stereo not shown) [Compound I-211]: 61%; for `CNC(=O)Nc1cn2nc(NC(=O)c3ccccc3)ccc2n1` [Compound I-104]: 55%.
